Test results reported in patent US20200016136A1 (VIIV HEALTHCARE UK (NO. 5) LIMITED, priority 2017, published 2020).

System: NL-RLuc virus (recombinant NL4-3 HIV with Renilla Luciferase gene)
Test: Inhibition of HIV replication (NL-RLuc virus in MT-2 cells, luciferase readout)
Assay type: cell-based, Human immunodeficiency virus (HIV)
Details: MT2, 120 h
In short: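 MT-2 cells infected with NL4-3-derived virus carrying Renilla luciferase in place of part of nef, grown 5 days with serial compound dilutions in RPMI 1640/10% FBS. Virus growth read as luciferase expression. EC50 from median effect equation, at least 2 experiments.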

SMILES | EC50
Cc1nc(C)c([C@H](OC(C)(C)C)C(=O)O)c(N2CCC(C)(C)CC2)c1-c1ccc2c(c1)CCN(c1nccc(-c3ccccn3)n1)C2 [Example 109, (S)-2-(tert-Butoxy)-2-(4-(4,4-dimethylpiperidin-1-yl)-2,6-dimethyl-5-(2-(4-(pyridin-2-yl)pyrimidin-2-yl)-1,2,3,4-tetrahydroisoquinolin-6-yl)pyridin-3-yl)acetic Acid] | 1 nM
Cc1nc(C)c([C@H](OC(C)(C)C)C(=O)O)c(N2CCC(C)(C)CC2)c1-c1ccc2c(c1)CCN(c1nccc(N(C)C)n1)C2 [Example 17, (2S)-2-(tert-Butoxy)-2-(5-{2-[4-(dimethylamino)pyrimidin-2-yl]-1,2,3,4-tetrahydroisoquinolin-6-yl}-4-(4,4-dimethylpiperidin-1-yl)-2,6-dimethylpyridin-3-yl)acetic Acid] | 1 nM
Cc1nc(C)c([C@H](OC(C)(C)C)C(=O)O)c(N2CCC(C)(C)CC2)c1-c1ccc2c(c1)CCN(c1cc(N3C[C@@H](C)O[C@@H](C)C3)ncn1)C2 [Example 130, (S)-2-(tert-Butoxy)-2-(5-(2-(6-((2S,6R)-2,6-dimethylmorpholino)pyrimidin-4-yl)-1,2,3,4-tetrahydroisoquinolin-6-yl)-4-(4,4-dimethylpiperidin-1-yl)-2,6-dimethylpyridin-3-yl)acetic Acid] | 5 nM
Cc1cccc(N2CCc3cc(-c4c(C)nc(C)c([C@H](OC(C)(C)C)C(=O)O)c4N4CCC(C)(C)CC4)ccc3C2)n1 [Example 89, (S)-2-(tert-Butoxy)-2-(4-(4,4-dimethylpiperidin-1-yl)-2,6-dimethyl-5-(2-(6-methylpyridin-2-yl)-1,2,3,4-tetrahydroisoquinolin-6-yl)pyridin-3-yl)acetic Acid] | 3 nM
Cc1cccc(Cl)c1CN1CCc2cc(-c3c(NCCN4CCCCC4)nc(C)c([C@H](OC(C)(C)C)C(=O)O)c3N3CCC(C)(C)CC3)ccc2C1 [Example 4, (S)-2-(tert-Butoxy)-2-(5-(2-(2-chloro-6-methylbenzyl)-1,2,3,4-tetrahydroisoquinolin-6-yl)-4-(4,4-dimethylpiperidin-1-yl)-2-methyl-6-((2-(piperidin-1-yl)ethyl)amino)pyridin-3-yl)acetic Acid] | 4 nM
Cc1nc(C)c([C@H](OC(C)(C)C)C(=O)O)c(N2CCC(C)(C)CC2)c1-c1ccc2c(c1)CCN(c1cc(N3CCC(O)CC3)ncn1)C2 [Example 125, (S)-2-(tert-Butoxy)-2-(4-(4,4-dimethylpiperidin-1-yl)-5-(2-(6-(4-hydroxypiperidin-1-yl)pyrimidin-4-yl)-1,2,3,4-tetrahydroisoquinolin-6-yl)-2,6-dimethylpyridin-3-yl)acetic Acid] | 23 nM
Cc1nc(C)c([C@H](OC(C)(C)C)C(=O)O)c(N2CCC(C)(C)CC2)c1-c1ccc2c(c1)CCN(c1cc(N3CC(C)CC(C)C3)ncn1)C2 (stereo partly drawn) [Example 137, (2S)-2-(tert-Butoxy)-2-(4-(4,4-dimethylpiperidin-1-yl)-5-(2-(6-(3,5-dimethylpiperidin-1-yl)pyrimidin-4-yl)-1,2,3,4-tetrahydroisoquinolin-6-yl)-2,6-dimethylpyridin-3-yl)acetic Acid] | 7 nM
Cc1nc(C)c([C@H](OC(C)(C)C)C(=O)O)c(N2CCC(C)(C)CC2)c1-c1ccc2c(c1)CCN(c1ccnc(N3CCN(CCO)CC3)n1)C2 [Example 85, (S)-2-(tert-Butoxy)-2-(4-(4,4-dimethylpiperidin-1-yl)-5-(2-(2-(4-(2-hydroxyethyl)piperazin-1-yl)pyrimidin-4-yl)-1,2,3,4-tetrahydroisoquinolin-6-yl)-2,6-dimethylpyridin-3-yl)acetic Acid] | 39 nM
CCOc1ncnc(N2CCc3cc(-c4c(C)nc(C)c([C@H](OC(C)(C)C)C(=O)O)c4N4CCC(C)(C)CC4)ccc3C2)c1C [Example 78, (S)-2-(tert-Butoxy)-2-(4-(4,4-dimethylpiperidin-1-yl)-5-(2-(6-ethoxy-5-methylpyrimidin-4-yl)-1,2,3,4-tetrahydroisoquinolin-6-yl)-2,6-dimethylpyridin-3-yl)acetic Acid] | 5 nM
Cc1nc(C)c([C@H](OC(C)(C)C)C(=O)O)c(N2CCC(C)(C)CC2)c1-c1ccc2c(c1)CCN(c1ccnc(N3CC4CCC(C3)O4)n1)C2 [Example 29, (2S)-2-(tert-Butoxy)-2-[4-(4,4-dimethylpiperidin-1-yl)-2,6-dimethyl-5-[2-(2-{8-oxa-3-azabicyclo[3.2.1]octan-3-yl}pyrimidin-4-yl)-1,2,3,4-tetrahydroisoquinolin-6-yl]pyridin-3-yl]acetic Acid] | 4 nM
Cc1nc(C)c([C@H](OC(C)(C)C)C(=O)O)c(N2CCC(C)(C)CC2)c1-c1ccc2c(c1)CCN(c1nccc(-c3cnccn3)n1)C2 [Example 108, (S)-2-(tert-Butoxy)-2-(4-(4,4-dimethylpiperidin-1-yl)-2,6-dimethyl-5-(2-(4-(pyrazin-2-yl)pyrimidin-2-yl)-1,2,3,4-tetrahydroisoquinolin-6-yl)pyridin-3-yl)acetic Acid] | 2 nM
Cc1nc(C)c([C@H](OC(C)(C)C)C(=O)O)c(N2CCC(C)(C)CC2)c1-c1ccc2c(c1)CCN(c1ccnc(N3C4CCC3CN(C)C4)n1)C2 [Example 42, (2S)-2-(tert-Butoxy)-2-[4-(4,4-dimethylpiperidin-1-yl)-2,6-dimethyl-5-[2-(2-{3-methyl-3,8-diazabicyclo[3.2.1]octan-8-yl}pyrimidin-4-yl)-1,2,3,4-tetrahydroisoquinolin-6-yl]pyridin-3-yl]acetic Acid] | 4 nM
Cc1nc(C)c([C@H](OC(C)(C)C)C(=O)O)c(N2CCC(C)(C)CC2)c1-c1ccc2c(c1)CCN(c1nc(Cl)nc(N3CCOCC3)n1)C2 [Example 58, (S)-2-(tert-Butoxy)-2-(5-(2-(4-chloro-6-morpholino-1,3,5-triazin-2-yl)-1,2,3,4-tetrahydroisoquinolin-6-yl)-4-(4,4-dimethylpiperidin-1-yl)-2,6-dimethylpyridin-3-yl)acetic Acid] | 8 nM
Cc1cccc(Cl)c1CN1CCc2cc(-c3c(NCCCN4CCN(C)CC4)nc(C)c([C@H](OC(C)(C)C)C(=O)O)c3N3CCC(C)(C)CC3)ccc2C1 [Example 11] | 2 nM
Cc1nc(C)c([C@H](OC(C)(C)C)C(=O)O)c(N2CCC(C)(C)CC2)c1-c1ccc2c(c1)CCN(c1ccnc(N3C4CCC3COC4)n1)C2 [Example 31, (2S)-2-(tert-Butoxy)-2-[4-(4,4-dimethylpiperidin-1-yl)-2,6-dimethyl-5-[2-(2-{3-oxa-8-azabicyclo[3.2.1]octan-8-yl}pyrimidin-4-yl)-1,2,3,4-tetrahydroisoquinolin-6-yl]pyridin-3-yl]acetic Acid] | 2 nM
Cc1cccc(Cl)c1CN1CCc2cc(-c3c(O)nc(C)c([C@H](OC(C)(C)C)C(=O)O)c3N3CCC(C)(C)CC3)ccc2C1 [Example 1, (S)-2-(tert-Butoxy)-2-(5-(2-(2-chloro-6-methylbenzyl)-1,2,3,4-tetrahydroisoquinolin-6-yl)-4-(4,4-dimethylpiperidin-1-yl)-2-methyl-6-oxo-1,6-dihydropyridin-3-yl)acetic Acid] | 10 nM
Cc1nc(C)c([C@H](OC(C)(C)C)C(=O)O)c(N2CCC(C)(C)CC2)c1-c1ccc2c(c1)CCN(c1nccc(N3C[C@@H](C)N(C)[C@@H](C)C3)n1)C2 [Example 41, (2S)-2-(tert-Butoxy)-2-[4-(4,4-dimethylpiperidin-1-yl)-2,6-dimethyl-5-(2-{4-[(3R,5S)-3,4,5-trimethylpiperazin-1-yl]pyrimidin-2-yl}-1,2,3,4-tetrahydroisoquinolin-6-yl)pyridin-3-yl]acetic Acid] | 3 nM
CC1(C)CCN(c2c(-c3ccc4c(c3)CCN(c3nccc(-c5cnccn5)n3)C4)c(N)nc(Cl)c2[C@H](OC(C)(C)C)C(=O)O)CC1 [Example 163, (S)-2-(6-Amino-2-chloro-4-(4,4-dimethylpiperidin-1-yl)-5-(2-(4-(pyrazin-2-yl)pyrimidin-2-yl)-1,2,3,4-tetrahydroisoquinolin-6-yl)pyridin-3-yl)-2-(tert-butoxy)acetic Acid] | 3 nM
Cc1nc(C)c([C@H](OC(C)(C)C)C(=O)O)c(N2CCC(C)(C)CC2)c1-c1ccc2c(c1)CCN(c1ncnc(N3C[C@@H](C)O[C@@H](C)C3)n1)C2 [Example 68, (S)-2-(tert-Butoxy)-2-(5-(2-(4-((2R,6S)-2,6-dimethylmorpholino)-1,3,5-triazin-2-yl)-1,2,3,4-tetrahydroisoquinolin-6-yl)-4-(4,4-dimethylpiperidin-1-yl)-2,6-dimethylpyridin-3-yl)acetic Acid] | 1 nM
CC1(C)CCN(c2c(-c3ccc4c(c3)CCN(c3ncnc5c3oc3ncccc35)C4)c(CO)nc(Cl)c2[C@H](OC(C)(C)C)C(=O)O)CC1 [Example 115, (S)-2-(tert-Butoxy)-2-(2-chloro-4-(4,4-dimethylpiperidin-1-yl)-6-(hydroxymethyl)-5-(2-(pyrido[3′,2′:4,5]furo[3,2-d]pyrimidin-4-yl)-1,2,3,4-tetrahydroisoquinolin-6-yl)pyridin-3-yl)acetic Acid] | 1 nM
Cc1nc(C)c([C@H](OC(C)(C)C)C(=O)O)c(N2CCC(C)(C)CC2)c1-c1ccc2c(c1)CCN(c1ccnc(N3CCC(F)(F)CC3)n1)C2 [Example 76, (S)-2-(tert-Butoxy)-2-(5-(2-(2-(4,4-difluoropiperidin-1-yl)pyrimidin-4-yl)-1,2,3,4-tetrahydroisoquinolin-6-yl)-4-(4,4-dimethylpiperidin-1-yl)-2,6-dimethylpyridin-3-yl)acetic Acid] | 3 nM
CC1(C)CCN(c2c(-c3ccc4c(c3)CCN(c3ncnc5c3oc3ccccc35)C4)cnc(Cl)c2[C@H](OC(C)(C)C)C(=O)O)CC1 [Example 103, (S)-2-(5-(2-(Benzofuro[3,2-d]pyrimidin-4-yl)-1,2,3,4-tetrahydroisoquinolin-6-yl)-2-chloro-4-(4,4-dimethylpiperidin-1-yl)pyridin-3-yl)-2-(tert-butoxy)acetic Acid] | 2 nM
